Results on two compounds are retold here after US5206260A, “Hexahydropyrrolo[2,3-b]indole derivatives” (priority 1991, dated 1993).

The nature of series [1]: Metabolites of heptylphysostigmine (dog urine after oral dosing; canine liver microsomes). Format: in vivo. The following applies: mammalian metabolites. Here is the method:
The foregoing metabolites were originally isolated from dog urine following oral dosing with trimethyl-1,3a,8-hexahydro-1,2,3,3a,8,8a-pyrrol-[2,3-b]indole-5(3aS,8aR)heptylcarbamate at dosage levels of 1 mg/kg/day. Some of these compounds were also isolated from an incubation mixture of canine liver microsomes and trimethyl-1,3a,8-hexahydro-1,2,3,3a,8,8a-pyrrol[2,3-b]indole-5(3aS,8aR)-heptylcarbamate at a concentration of 10 μM in the presence of MgCl2 and NADPH in a buffer of approximately neutral pH at approximately 30°-40° C. The compounds were isolated from the biological matrix by selective solid phase or solvent extraction and purified by liquid chromatography (LC) using different mobile phase conditions. The procedures and the results of these experiments are noted in Examples 1-3.
Incubation of heptylphysostigmine with dog liver microsomes or 9,000×g supernatant fractions was performed to generate metabolites. The incubation mixture contained 100 μmoles of potassium phosphate, pH 7.4, 3 μmoles of MgCl2, 0.5 μmole of NADPH, 1 mg microsomal or 4 mg S9 protein and 10 nmols of ^3 H-heptylphysostigmine in a final volume of 1.0 ml. The incubations were carried out at 37° C. and 120 rpm for 10, 30 or 60 minutes. At the end of the incubation period, metabolites were extracted with a 2:1 mixture of ethyl acetate and acetone. […]

For series [2] the following is noted: background statement, cited from earlier work.
The conditions of series [3]: Somani et al., 1989; cited from earlier work.

As for `CCCCCCCNC(=O)Oc1ccc2c(c1)[C@]1(C)CCN(C)[C@@H]1N2C` [heptylphysostigmine, trimethyl-1,3a,8-hexahydro-1,2,3,3a,8,8a-pyrrol[2,3-b]indole-5(3aS,8aR) heptylcarbamate], the metabolites discovered result in series [1] was “eseroline and eseroline glucuronide were also discovered among the mammalian metabolites”.
Regarding `CNC(=O)Oc1ccc2c(c1)[C@]1(C)CCN(C)[C@@H]1N2C` [physostigmine, trimethyl-1,3a,8-hexahydro-1,2,3,3a,8,8a-pyrrol[2,3-b]indole-5(3aS,8aR)methylcarbamate], the half-life of effect result in series [2] was “short half-life of effect”. Further, the side-effects result in series [2] (particularly towards the digestive system) is recorded as “severe dose-limiting side-effects”. Also, in series [3], the metabolites reported entry is “metabolized to eseroline and at least three other unknown metabolites”.
